This series deals with participants with PTSD. Nature of the series: IMPACT-1 open-label study (Part A). Format: in vivo, human. Details: reduction in Anxiety Sub-Scale of MADRS: concentration or dose not given beside the values. The method, then:
The purpose of this pilot study is to evaluate the safety, tolerability, and efficacy of methylone in adult participants with PTSD. The study is conducted in two parts. Part A is open-label enrolling up to 15 evaluable participants with PTSD. After completion of Part A, enrollment will begin for Part B, which is double-blind, placebo-controlled and enrolling up to 64 evaluable participants with PTSD.
Brief Summary: This is a two-part study to assess methylone for the management of the symptoms of PTSD. Part A is an open-label, non-controlled assessment in up to 15 evaluable participants with PTSD to assess early safety and efficacy and to confirm procedures included in the blinded portion (Part B) of the study. After completion of Part A, enrollment for Part B will begin in up to 64 participants. Part B is identical to Part A with the exception of the inclusion of a placebo arm in Part B.
For each participant in Parts A and B, the study consists of: • Screening Period (Day-28 to Day-4): Informed consent, eligibility assessment, and enrolment of eligible participants. • Baseline/Preparatory Session (Day-3 to Day-1): Baseline assessments, confirmation of eligibility, and a preparatory psychoeducation session leading to enrolment confirmation. • Treatment Period (Day 1 to Day 24): Four weekly dose sessions, with associated remote sessions. The dose sessions last at least 8 hours, or until all effects (physical and psychological) have resolved (whichever is longer). Each dose session is followed by a safety phone call 1 day after dosing and efficacy assessments 2 days after dosing. Each dosing period is video recorded for quality and training purposes. The videos may be reviewed to ensure the Mentor is adhering to the Mentor training. • Follow-Up Period (Day 29 to Day 64): Follow-Up visits for safety and efficacy occur at 1, 2, 3 and 6 weeks post-final study drug administration. In addition, there are Mentor-Led Reflection Sessions 1, 2 and 3 weeks post-final study drug administration. Participants are contacted via telephone on Day 57 (±2 days) for Follow-Up. • Discontinuations: Participants who discontinue prematurely are asked to return for an extra visit to duplicate the 6-week end-of-study (EOS) visit.
Each dose was given as an initial dose, followed by a second dose 90 minutes later. During the dosing session, participants were accompanied by a trained Mentor who provided non-directive support. After the 4-week treatment period, participants attended follow-up visits at 1, 2, 3, and 6 weeks following the last dose. Safety was assessed via standard measures including adverse events. PTSD symptoms were assessed via Clinician-Administered PTSD Scale for DSM-5 (CAPS-5), depressive symptoms were assessed via Montgomery-Åsberg Depression Rating Scale (MADRS). Anti-anxiety efficacy was evaluated using the Anxiety Sub-Scale of MADRS, namely, questions (Items 3, 4, 5, 6) that address four anxiety items (inner tension, reduced sleep, reduced appetite, concentration difficulties) Changes from baseline were analyzed using a paired t-test p-values.
Methods: The IMPACT-1 study is a multi-center, two-part clinical trial. Part A has completed and was an open-label evaluation involving 14 participants with PTSD. Eligible participants are adults with severe PTSD (CAPS-5 ≥35) who had failed at least 1 prior treatment (pharmacotherapy and/or psychotherapy) for PTSD. […] Throughout each dosing session, participants were provided non-directive psychological support by a trained mental health practitioner. Following the 4-week treatment period, participants were followed for an additional 6 weeks to evaluate the durability of the therapeutic effect. PTSD symptom improvement was evaluated on the CAPS-5. Functioning was assessed via the 3 domains (school/work, family life, social life) of the Sheehan Disability Scale (SDS). Global improvement was measured by the CGI-I. Safety was assessed by monitoring adverse events, vital signs, and C-SSRS. […]

On to `CNC(C)C(=O)c1ccc2c(c1)OCO2` (stereo not shown) [methylone, 3,4-methylenedioxy-N-methylcathinone], for which the “decrease in CAPS-5 score” value (Day 3) is 8.4 points. For the same compound, the “decrease in MADRS score” value (Day 3) was determined as 8.2 points. For the same compound, the “reduction in Anxiety Sub-Scale of MADRS” value is recorded as 20% (Day 3); 43% (Day 10); 50% (Day 17); 57% (Day 24); 56% (Day 29); 66% (Day 36). The “reduction in Anxiety Sub-Scale of MADRS” value is 64% (Day 43) and 66% (Day 64). In addition, the “SDS Family Life score, mean (SD)” value (Day 64) is 3.1 (3.45). For the same compound, under “Day 64”, the “SDS Mean Overall score, mean (SD)” value is listed as 3.1 (3.12). Further, the “SDS Social Life score, mean (SD)” value (Day 64) is 3.2 (3.39). Besides, the “SDS Work/School score, mean (SD)” value (Day 64) is 3.3 (3.78). In addition, the “PSQI total score change” value (end of study (6 weeks after the last dose)) was −4.0 points. Further, the “drug-related SAEs” value (human, in vivo, oral, 4 weeks) was “No drug-related SAEs occurred”.

The values are drawn from patent US20250332139A1, “PS[…] AND THEIR USE FOR TREATING […] AND NE[…] DISORDERS” (Transcend Therapeutics, Inc., priority 2021, published 2025).
